# Assay results published in patent publication US11547681B2, “N-acylethanolamide derivatives and uses thereof” (ELIEM THERAPEUTICS, INC., priority 2016, dated 2023).
# How the values were obtained:
# [1] = Plasma stability (37° C., pH 7.4), dog; assay type: in vitro ADME, Beagle dog; settings: for % Remaining of Initial (n = 1), 0 min / % Remaining of Initial (n = 1), 15 min / % Remaining of Initial (n = 1), 30 min / % Remaining of Initial (n = 1), 60 min / % Remaining of Initial (n = 1), 120 min / % Remaining of Initial: dog plasma; for % Remaining of Initial (n = 1), 0 min: pH 7.4, 0 min; for % Remaining of Initial (n = 1), 15 min: pH 7.4, 15 min; for % Remaining of Initial (n = 1), 30 min: pH 7.4, 30 min; for % Remaining of Initial (n = 1), 60 min: pH 7.4, 60 min; for % Remaining of Initial (n = 1), 120 min: pH 7.4, 120 min; for half-life at 1 μM: male, Beagle, dog, plasma; for % Remaining of Initial (n = 1): Dog plasma; for % Remaining of Initial: n = 1
# Protocol: (§1) Studies were carried out in mixed-gender human plasma (Lot #GLP530-5), male Sprague-Dawley rat (Lot #RAT297944, RAT313140), male CD-1 mouse (Lot #MSE237700), and male Beagle dog (Lot #BGL87670, BGL82614), collected on sodium heparin. Plasma was adjusted to pH 7.4 prior to initiating the experiments. DMSO stocks were first prepared for the test articles. Aliquots of the DMSO solutions were dosed into 700 μL of plasma, which had been pre-warmed to 37° C., at a final test article concentration of 1 μM. […] Samples were stored at 4° C. until the end of the experiment. After the final time point was sampled, the plate was mixed and then centrifuged at 3,000 rpm for 10 minutes. Calibration standards were prepared in matched matrix. […] Analytical conditions are outlined in Appendix 8-1.
# as §1, with “#AS1650-2),” for “#GLP530-5),”, “#RAT297944),” for “#RAT297944, RAT313140),”, “CD-I” for “CD-1”, “#BGL91384),” for “#BGL87670, BGL82614),”, “10-1.” for “8-1.”
# (§2) Studies were carried out in mixed-gender human plasma (Lot #AS1650-2), male Sprague-Dawley rat (Lot #RAT297944), male CD-1 mouse (Lot #MSE237700), and male Beagle dog (Lot #BGL91384), collected on sodium heparin. Plasma was adjusted to pH 7.4 prior to initiating the experiments. DMSO stocks were first prepared for test articles. […] Samples were stored at 4° C. until the end of experiment. After the final time point was sampled, the plate was mixed and then centrifuged at 3,000 rpm for 10 minutes. Calibration standards were prepared in matched matrix. […] Analytical conditions are outlined in Appendix 13-1.
# (§3) Studies were carried out in mixed-gender human plasma (Lot #AS 1650-2), male Sprague-Dawley rat (Lot #RAT320835), male CD-1 mouse (Lot #MSE260693), and 6 male Beagle dog (Lot #BGL91384), on sodium heparin. Plasma was adjusted to pH 7.4 prior to initiating the experiments. DMSO stocks were first prepared for the test articles. Aliquots of the DMSO solutions were dosed into 700 μL of plasma, which had been pre-warmed to 37° C., at a final test article concentration of 1 μM. […] Samples were stored at 4° C. until the end of the experiment. After the final time point was sampled, the plate was mixed and then centrifuged at 3,000 rpm for 10 minutes. Calibration standards were prepared in matched matrix. […] Analytical conditions are outlined in Appendix 17-1.
# [2] = Plasma stability (37° C., pH 7.4), human; assay type: in vitro ADME; settings: for half-life at 1 μM: both sexes, human, plasma; for % Remaining of Initial (n = 1), 0 min / % Remaining of Initial (n = 1), 15 min / % Remaining of Initial (n = 1), 30 min / % Remaining of Initial (n = 1), 60 min / % Remaining of Initial (n = 1), 120 min / % Remaining of Initial: human plasma; for % Remaining of Initial (n = 1), 0 min: pH 7.4, 0 min; for % Remaining of Initial (n = 1), 15 min: pH 7.4, 15 min; for % Remaining of Initial (n = 1), 30 min: pH 7.4, 30 min; for % Remaining of Initial (n = 1), 60 min: pH 7.4, 60 min; for % Remaining of Initial (n = 1), 120 min: pH 7.4, 120 min; for % Remaining of Initial (n = 1): Human plasma; for % Remaining of Initial: n = 1
# Protocol: as §1
# as §1, with “#AS1650-2),” for “#GLP530-5),”, “#RAT297944),” for “#RAT297944, RAT313140),”, “CD-I” for “CD-1”, “#BGL91384),” for “#BGL87670, BGL82614),”, “10-1.” for “8-1.”
# as §2, §3
# [3] = pH 7.4, dog plasma, test article 1 μM, 37° C., pH 7.4
# [4] = pH 7.4, human plasma, test article 1 μM, 37° C., pH 7.4, read-out: Half-life
# [5] = pH 7.4, human plasma, read-out: Half-life
# [6] = pH 7.4, human plasma, calculated value beyond duration of experiment, read-out: Half-life (min), calculated half-life in parentheses
Compound,"% Remaining of Initial (n = 1), 0 min ([1]; test article 1 μM, 37° C.)","% Remaining of Initial (n = 1), 15 min ([1]; test article 1 μM, 37° C.)","% Remaining of Initial (n = 1), 30 min ([1]; test article 1 μM, 37° C.)","% Remaining of Initial (n = 1), 60 min ([1]; test article 1 μM, 37° C.)","% Remaining of Initial (n = 1), 120 min ([1]; test article 1 μM, 37° C.)","half-life at 1 μM [1, 3]","half-life at 1 μM [2, 4]","% Remaining of Initial (n = 1), 0 min ([2]; test article 1 μM, 37° C.)","% Remaining of Initial (n = 1), 15 min ([2]; test article 1 μM, 37° C.)","% Remaining of Initial (n = 1), 30 min ([2]; test article 1 μM, 37° C.)","% Remaining of Initial (n = 1), 60 min ([2]; test article 1 μM, 37° C.)","% Remaining of Initial (n = 1), 120 min ([2]; test article 1 μM, 37° C.)","half-life at 1 μM [2, 6]",other results
CCCCCCCCCCCCCCCC(=O)NCCOC(=O)CCC(=O)OCC(COC(=O)CCC)OC(=O)CCC (stereo not shown) [Compound I-11],100%,61%,40%,18%,5.4%,0.383 h,34 min,100%,67%,47%,34%,10%,,
CCCCC/C=C\C/C=C\CCCCCCCC(=O)OCC(COC(=O)CCC(=O)OCCNC(=O)CCCCCCCCCCCCCCC)OC(=O)CCCCCCC/C=C\C/C=C\CCCCC (stereo not shown) [Compound I-13],,,,,,,,,,,,,,"% Remaining of Initial (n = 1) ([1]; 0 min, 1 μM): 100%; % Remaining of Initial (n = 1) ([1]; 15 min, 1 μM): 90%; % Remaining of Initial (n = 1) ([1]; 30 min, 1 μM): 72%; % Remaining of Initial (n = 1) ([1]; 60 min, 1 μM): 54%; % Remaining of Initial (n = 1) ([1]; 120 min, 1 μM): 23%; half-life at 1 μM ([1]; pH 7.4, Dog plasma, 1 μM): 1.02 h; % Remaining of Initial (n = 1) ([2]; 0 min, 1 μM): 100%; % Remaining of Initial (n = 1) ([2]; 15 min, 1 μM): 104%; % Remaining of Initial (n = 1) ([2]; 30 min, 1 μM): 115%; % Remaining of Initial (n = 1) ([2]; 60 min, 1 μM): 95%; % Remaining of Initial (n = 1) ([2]; 120 min, 1 μM): 40%; half-life at 1 μM ([2]; pH 7.4, Human plasma, 1 μM, read-out: Half-life): 120 min"
CCCCCCCCCCCCCCCC(=O)NCCOC(=O)CCC(=O)OCC(O)CO (stereo not shown) [Compound I-9],100%,8.7%,12%,1.2%,<1.0%,0.0783 h,3.8 min,100%,6.4%,1.4%,<1.0%,<1.0%,,
CCCCCCCCCCCCCCCC(=O)NCCOC(=O)CCC(=O)OC(COC(=O)CCC)COC(=O)CCC [Compound I-16],,,,,,,,,,,,,,"% Remaining of Initial ([1]; 0 min, 1 μM): 100%; % Remaining of Initial ([1]; 15 min, 1 μM): 91%; % Remaining of Initial ([1]; 30 min, 1 μM): 65%; % Remaining of Initial ([1]; 60 min, 1 μM): 39%; % Remaining of Initial ([1]; 120 min, 1 μM): 13%; half-life at 1 μM ([1]; pH 7.4, dog plasma): 0.733 h; half-life at 1 μM [2, 5]: 31 min; % Remaining of Initial ([2]; 0 min, 1 μM): 100%; % Remaining of Initial ([2]; 15 min, 1 μM): 78%; % Remaining of Initial ([2]; 30 min, 1 μM): 51%; % Remaining of Initial ([2]; 60 min, 1 μM): 24%; % Remaining of Initial ([2]; 120 min, 1 μM): 5.8%"
CCCCCCCCCCCCCCCC(=O)NCCOC(=O)CCC(=O)OC(CO)CO [Compound I-8],,,,,,,,,,,,,,"% Remaining of Initial ([1]; 0 min, 1 μM): 100%; % Remaining of Initial ([1]; 15 min, 1 μM): <1.0%; % Remaining of Initial ([1]; 30 min, 1 μM): <1.0%; % Remaining of Initial ([1]; 60 min, 1 μM): <1.0%; % Remaining of Initial ([1]; 120 min, 1 μM): <1.0%; half-life at 1 μM ([1]; pH 7.4, dog plasma): < 0.0167 h; half-life at 1 μM [2, 5]: < 1 min; % Remaining of Initial ([2]; 0 min, 1 μM): 100%; % Remaining of Initial ([2]; 15 min, 1 μM): <1.0%; % Remaining of Initial ([2]; 30 min, 1 μM): <1.0%; % Remaining of Initial ([2]; 60 min, 1 μM): <1.0%; % Remaining of Initial ([2]; 120 min, 1 μM): <1.0%"
CCCCCCCCCCCCCCCC(=O)NCCOC(=O)CCC [Compound I-2],100%,95%,71%,54%,24%,1.02 h,> 120 min,100%,96%,91%,84%,51%,135 min,

# Further lines, with some results ahead:
"% Remaining of Initial (n = 1), 0 min ([1]; test article 1 μM, 37° C.)","% Remaining of Initial (n = 1), 15 min ([1]; test article 1 μM, 37° C.)","% Remaining of Initial (n = 1), 30 min ([1]; test article 1 μM, 37° C.)","% Remaining of Initial (n = 1), 60 min ([1]; test article 1 μM, 37° C.)","% Remaining of Initial (n = 1), 120 min ([1]; test article 1 μM, 37° C.)","half-life at 1 μM [1, 3]","half-life at 1 μM [2, 4]","% Remaining of Initial (n = 1), 0 min ([2]; test article 1 μM, 37° C.)","% Remaining of Initial (n = 1), 15 min ([2]; test article 1 μM, 37° C.)","% Remaining of Initial (n = 1), 30 min ([2]; test article 1 μM, 37° C.)","% Remaining of Initial (n = 1), 60 min ([2]; test article 1 μM, 37° C.)","% Remaining of Initial (n = 1), 120 min ([2]; test article 1 μM, 37° C.)","half-life at 1 μM [2, 6]",Compound,other results
100%,<1.0%,<1.0%,<1.0%,<1.0%,< 0.0167 h,< 1 min,100%,<1.0%,<1.0%,<1.0%,<1.0%,,CCCCCCCCCCCCCCCC(=O)NCCOC(=O)CCC(=O)OC[C@H]1O[C@@](CO)(O[C@H]2O[C@H](CO)[C@@H](O)[C@H](O)[C@H]2O)[C@@H](O)[C@@H]1O [Compound I-7],
100%,55%,42%,34%,22%,0.6 h,> 120 min,100%,79%,102%,74%,53%,147 min,CCCCC/C=C\C/C=C\CCCCCCCC(=O)OCCNC(=O)CCCCCCCCCCCCCCC [Compound I-6],
100%,90%,90%,95%,99%,> 2 h,> 120 min,100%,109%,84%,65%,77%,211 min,"CCCCCCCCCCCCCCCC(=O)NCCOC(=O)CCC(=O)OCC(COC(=O)CCCCCCC)OC(=O)CCCCCCC (stereo not shown) [Compound I-3, PEA-Succinate-Glycerol-Di-Caprylic]",
100%,87%,98%,87%,83%,> 2 h,> 120 min,100%,110%,81%,82%,69%,195 min,CC/C=C\C/C=C\C/C=C\C/C=C\C/C=C\CCCC(=O)OCCNC(=O)CCCCCCCCCCCCCCC [Compound I-5],
